This passage reports Ki and Kd results from PMC2726284, “Electron Crystallography Reveals Plasticity within the Drug Binding Site of the Small Multidrug Transporter EmrE” (Journal of Molecular Biology, 2008).

Test [1] concerns the target T1, EmrE (Escherichia coli, UniProt P23895).
T1 construct: 6xHis-tagged EmrE, purified, detergent (DDM)-solubilized
The test can be described thus: [3H]TPP+ radioligand competition; exchange in 2-D crystals and cryo-EM projection map. It counts as binding. (In a radioligand displacement assay an active substance lowers the binding of a labelled ligand.)

The target of test [2] is T1, EmrE. Nature of the test: [3H]TPP+ radioligand competition; cryo-EM projection structure of 2-D co-crystals at […] Å. Format: binding.
Test [3] concerns the target T1, EmrE. The test can be described thus: [3H]TPP+ radioligand binding to solubilized EmrE and 2-D crystals. The note with it: cited from earlier work.

T1 sequence (P23895 whole entry): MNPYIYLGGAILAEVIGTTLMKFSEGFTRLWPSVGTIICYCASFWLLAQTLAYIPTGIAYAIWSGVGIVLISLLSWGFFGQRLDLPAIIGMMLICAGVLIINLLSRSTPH

Usually Ki stands for a dissociation constant, usually derived from enzyme kinetics or from competition with a known ligand. Read a high Ki as lower affinity. In test [1], `Cc1cc(N)c2ccccc2[n+]1CCCCCCCCCC[n+]1c(C)cc(N)c2ccccc21` [DQ^2+, dequalinium] returned a Ki of 83 ± 9 nM.

For the compound `CC[n+]1c(-c2ccccc2)c2cc(N)ccc2c2ccc(N)cc21` [Eth^+, ethidium], the Ki in test [2] was 1000 ± 900 nM.

In test [1], `CC[N+](C)(CC)CCC[n+]1c(-c2ccccc2)c2cc(N)ccc2c2ccc(N)cc21` [PP^2+, propidium] displayed a Ki of 19 ± 4 nM.

Usually Kd stands for the concentration at which binding is half-saturated. Consider `c1ccc([P+](c2ccccc2)(c2ccccc2)c2ccccc2)cc1` [TPP^+, tetraphenylphosphonium], for which the equilibrium dissociation constant (Kd) in test [3] was 2.4 nM.
